Laboratory results as given in patent US20100190768A1, “NOVEL FUSED PYROLE DERIVATIVE” (Dainippon Sumitomo Pharma Co., Ltd., priority 2005, published 2010).

How the values were obtained:
human GRα protein = biological target: T1, human GRα protein (Homo sapiens, UniProt P04150); assay: Binding inhibitory assay (displacement of 3H-dexamethasone from the cytoplasm fraction of baculovirus-infected insect cells); details: 100 nM test compound; 3H-Dex; NSB with 10 μM dexamethasone; read-out: Binding Inhibitory ratio (%) of 100 nM of test compound
T1 construct: made in house; host or cells: insect cells infected with baculovirus; cytoplasm fraction used
T1 sequence (P04150 1-777): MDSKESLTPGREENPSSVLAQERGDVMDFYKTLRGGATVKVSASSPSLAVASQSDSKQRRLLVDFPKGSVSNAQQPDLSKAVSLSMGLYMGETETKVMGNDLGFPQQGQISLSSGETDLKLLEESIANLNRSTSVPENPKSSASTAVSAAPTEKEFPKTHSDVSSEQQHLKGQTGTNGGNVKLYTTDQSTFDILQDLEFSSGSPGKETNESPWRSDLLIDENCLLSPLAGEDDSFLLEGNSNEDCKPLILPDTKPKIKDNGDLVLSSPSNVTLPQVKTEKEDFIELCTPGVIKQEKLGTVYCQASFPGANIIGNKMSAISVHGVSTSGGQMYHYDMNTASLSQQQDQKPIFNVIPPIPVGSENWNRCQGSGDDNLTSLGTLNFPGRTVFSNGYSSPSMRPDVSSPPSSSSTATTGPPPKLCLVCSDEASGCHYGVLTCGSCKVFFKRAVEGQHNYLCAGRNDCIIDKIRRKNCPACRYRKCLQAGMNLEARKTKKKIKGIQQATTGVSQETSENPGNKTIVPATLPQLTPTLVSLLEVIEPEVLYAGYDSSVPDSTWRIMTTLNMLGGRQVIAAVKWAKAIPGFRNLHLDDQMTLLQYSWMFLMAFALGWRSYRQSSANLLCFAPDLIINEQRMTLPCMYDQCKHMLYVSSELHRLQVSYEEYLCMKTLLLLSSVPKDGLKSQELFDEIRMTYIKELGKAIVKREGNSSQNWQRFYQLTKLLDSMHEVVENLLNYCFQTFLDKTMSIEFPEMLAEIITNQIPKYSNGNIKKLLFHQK
Outline: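 Cytosol from baculovirus-infected insect cells expressing human GRα incubated with compound and 10 nM ³H-dexamethasone solution in Tris/EDTA/glycerol/DTT/molybdate buffer, pH 7.6, 1% DMSO, 16–20 h at 4 °C. Free ligand removed with dextran-coated charcoal, supernatant counted; NSB from 10 μM dexamethasone, inhibition % vs DMSO, duplicates.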

H4-III-E cells = assay: TAT (tyrosine aminotransferase) assay; assay type: cell-based; details: for Antagonistic activity of 10 μM test compound: 10 μM test compound together with 0.005 μM dexamethasone, inhibitory ratio against TAT activity increase by Dex
Outline: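 Rat hepatoma H4-III-E cells were treated overnight with compound, either alone for agonism or together with 0.005 μM dexamethasone for antagonism. TAT activity in lysates was read at 331 nm after reaction at 37 °C. Activity was expressed as % of the dexamethasone response, or as % inhibition of the dexamethasone-induced increase, and scored at a 10% cutoff.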

[1] = 10 μM test compound alone, relative to maximum Dex-induced TAT activity (100%)

Row | inhibition at 0.1 µM (human GRα protein) | Structure (SMILES) | Agonistic activity of 10 μM test compound (H4-III-E cells; [1]) | Antagonistic activity of 10 μM test compound (H4-III-E cells) | activation at 10 µM (H4-III-E cells; 10 μM test compound alone, relative to maximum Dex-induced TAT activity (100%), read-out: Agonistic activity of 10 μM test compound)
1 | 94% | CN1CCCN(C(=O)c2ccc(OC3CCN(CC(O)(c4cn(Cc5ccccc5)c5cc([N+](=O)[O-])ccc45)C(F)(F)F)CC3)cc2)CC1 (stereo not drawn) [Example 203, 2-(1-Benzyl-6-nitro-1H-indol-3-yl)-1,1,1-trifluoro-3-(4-{4-[(4-methyl-1,4-diazepan-1-yl)carbonyl]phenoxy}piperidin-1-yl)propan-2-ol] | ◯ | ◯ | 
2 | 96% | COc1ccc(Cn2cc(C(O)(CN3CCC(Oc4ccc(CC(=O)O)cc4OC)CC3)C(F)(F)F)c3ccc(C#N)cc32)cc1 (stereo not drawn) [Example 226, {4-[(1-{2-[6-Cyano-1-(4-methoxybenzyl)-1H-indol-3-yl]-3,3,3-trifluoro-2-hydroxypropyl}piperidin-4-yl)oxy]-3-methoxyphenyl}acetic acid] | ◯ | ◯ | 
3 | 79% | COc1cc(CC(=O)O)ccc1OC1CCN(CC(O)(c2cn(Cc3ccncc3)c3cc(C#N)ccc23)C(F)(F)F)CC1 (stereo not drawn) [Example 235, {4-[(1-{2-[6-Cyano-1-(pyridin-4-ylmethyl)-1H-indol-3-yl]-3,3,3-trifluoro-2-hydroxypropyl}piperidin-4-yl)oxy]-3-methoxyphenyl}acetic acid] |  | ◯ | < 10%
